Measured values from publication PMC8587871, “Novel Thiosemicarbazone Derivatives: In Vitro and In Silico Evaluation as Potential MAO-B Inhibitors” (Molecules, 2021).

Columns and labels:
[1] = target: T1, hMAO-A (Homo sapiens, UniProt P21397); experiment: In vitro fluorometric MAO-A inhibition assay; type: biochemical; settings: for inhibition at 1000 µM: 10^−3 M; for inhibition at 100 µM: 10^−4 M
T1 sequence (P21397 1-527): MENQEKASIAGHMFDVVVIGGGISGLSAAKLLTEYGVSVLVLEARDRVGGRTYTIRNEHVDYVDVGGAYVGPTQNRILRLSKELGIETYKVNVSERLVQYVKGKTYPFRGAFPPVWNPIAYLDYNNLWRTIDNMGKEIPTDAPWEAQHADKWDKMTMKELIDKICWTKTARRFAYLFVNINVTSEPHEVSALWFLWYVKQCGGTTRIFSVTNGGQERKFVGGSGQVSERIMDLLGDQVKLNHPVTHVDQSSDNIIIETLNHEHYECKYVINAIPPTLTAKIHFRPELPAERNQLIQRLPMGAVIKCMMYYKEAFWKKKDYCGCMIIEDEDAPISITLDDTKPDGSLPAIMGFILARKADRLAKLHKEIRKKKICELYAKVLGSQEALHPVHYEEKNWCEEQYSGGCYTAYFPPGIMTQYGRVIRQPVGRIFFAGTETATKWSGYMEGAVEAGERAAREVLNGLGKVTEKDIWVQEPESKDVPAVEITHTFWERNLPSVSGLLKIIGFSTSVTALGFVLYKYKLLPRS
Protocol: (§1) The inhibition power on MAO isoenzymes of the synthesized compounds was evaluated by using the in vitro fluorometric method declared previously by our research group.
(§2) The in vitro MAO inhibition test was performed using the available fluorometric method, and the percentages and IC50 values of obtained compounds were calculated as previously described by our research group.

[2] = target: T2, hMAO-B (Homo sapiens, UniProt P27338); experiment: In vitro fluorometric MAO-B inhibition assay; type: biochemical; settings: for inhibition at 1000 µM: 10^−3 M; for inhibition at 100 µM: 10^−4 M; for inhibition at 10 µM: 10^−5 M; for inhibition at 1 µM: 10^−6 M; for inhibition at 0.1 µM: 10^−7 M; for inhibition at 0.01 µM: 10^−8 M; for inhibition at 0.001 µM: 10^−9 M; for IC50: read-out: IC50 against MAO-B
T2 sequence (P27338 1-520): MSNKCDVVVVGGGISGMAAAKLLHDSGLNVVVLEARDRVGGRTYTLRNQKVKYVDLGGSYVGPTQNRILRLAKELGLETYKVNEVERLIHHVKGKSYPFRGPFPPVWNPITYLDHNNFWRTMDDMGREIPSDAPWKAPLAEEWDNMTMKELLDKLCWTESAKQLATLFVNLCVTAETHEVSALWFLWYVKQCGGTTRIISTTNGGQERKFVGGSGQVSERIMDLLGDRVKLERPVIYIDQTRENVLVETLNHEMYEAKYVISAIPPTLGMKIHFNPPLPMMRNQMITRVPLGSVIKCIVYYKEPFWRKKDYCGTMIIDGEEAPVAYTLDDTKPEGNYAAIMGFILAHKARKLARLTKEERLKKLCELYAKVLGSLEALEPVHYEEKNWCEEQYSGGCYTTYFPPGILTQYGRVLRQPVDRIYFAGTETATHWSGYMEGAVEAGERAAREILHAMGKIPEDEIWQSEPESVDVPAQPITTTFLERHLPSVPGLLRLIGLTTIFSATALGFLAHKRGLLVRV
Protocol: as §1, §2

[3] = target: T2, hMAO-B; experiment: Enzyme kinetic study (Lineweaver–Burk and secondary plots) of hMAO-B inhibition; type: biochemical; settings: substrate tyramine; for Type of hMAO-B inhibition: Lineweaver–Burk plots; for Ki: secondary plots, read-out: Ki (steady-state inhibition constant) for hMAO-B
Excerpt: Enzyme kinetic studies help to determine the inhibitory character of the relevant compound on the enzyme as irreversible or reversible inhibition, and to evaluate the nature of the inhibition of the relevant compound. The linear Lineweaver–Burk plots are the most commonly used method for this purpose. […] Enzyme kinetic assay was applied in the same way as previously mentioned. […] The rate curves of substrates were reported in the absence and presence of these compounds. In all cases, initial velocity measurements were collected at various substrate (tyramine) concentrations ranging from 20 µM to 0.625 µM. Thus, linear Lineweaver–Burk graphs of compounds 2b and 2h were formed as in Figure 4A and Figure 5A, respectively.
According to Lineweaver–Burk plots, reversible and irreversible inhibition type constitute two general categories. Mixed-type, uncompetitive, competitive, and non-competitive inhibition types are included in the reversible inhibition.
The same materials used in the MAO inhibition assay were used in this experiment. […] All processes were evaluated in quadruplicate. The results were analyzed with Microsoft Office Excel 2013 using Lineweaver–Burk diagrams. […] of the Lineweaver–Burk plots were replotted versus the inhibitors’ concentrations, and the Ki values were determined from the x-axis intercept as -Ki.

[4] = test system: NIH/3T3 mouse embryonic fibroblast cell line; experiment: MTT cytotoxicity assay; type: cell-based; settings: for Cytotoxicity at effective concentration against MAO-B: MTT assay, NIH/3T3
Protocol: (§3) The NIH/3T3 mouse embryonic fibroblast cell line (ATCC® CRL-1658™, London, UK) was used for cytotoxicity assays. The incubation period of NIH/3T3 cells was based on the supplier’s recommendation. NIH/3T3 cells were seeded at 1 × 10^4 cells into each well of 96-well plates. MTT assay was carried out in accordance with the standards previously described.

[5] = MTT cytotoxicity assay; type: cell-based, mouse; settings: mouse, NIH/3T3 mouse embryonic fibroblast cells; MTT assay; read-out: IC50 against NIH/3T3 cells
Protocol: as §3

inhibition at 1000 µM [1] | inhibition at 100 µM [1] | melting point | inhibition at 1000 µM [2] | inhibition at 100 µM [2] | Type of hMAO-B inhibition [3] | Ki [3] | inhibition at 10 µM [2] | inhibition at 1 µM [2] | inhibition at 0.1 µM [2] | inhibition at 0.01 µM [2] | inhibition at 0.001 µM [2] | IC50 [2] | SMILES | Cytotoxicity at effective concentration against MAO-B [4] | IC50 [5] | IC50 ([4]; Mus musculus, NIH3T3, Table 3 column 1 as headed)
36.7 ± 0.91% | 23.4 ± 0.832% | 205.2 to 206.8 °C | 85.5 ± 1.53% | 40.8 ± 0.827% |  |  |  |  |  |  |  |  | S=C(NN=Cc1cc2ccccc2o1)Nc1ccccc1 [Compound 2e, 2-(Benzofuran-2-ylmethylene)-N-phenylhydrazine-1-carbothioamide] |  |  | 
36.8 ± 0.741% | 21.9 ± 0.75% | 164.9 to 166.2 °C | 90.4 ± 1.6% |  | reversible and non-competitive | 46 nM | 80.8 ± 1.04% | 72.2 ± 1.39% | 65 ± 1.11% | 42.8 ± 0.948% | 30.9 ± 0.782% | 56 ± 2 nM | COCCNC(=S)NN=Cc1cc2ccccc2s1 [Compound 2h, 2-(Benzo[b]thiophen-2-ylmethylene)-N-(2-methoxyethyl)hydrazine-1-carbothioamide] | non-cytotoxic | 81300 nM | 
35.7 ± 0.863% | 29.2 ± 0.816% | 168.9 to 170.7 °C | 84.7 ± 1.63% | 46 ± 0.931% |  |  |  |  |  |  |  |  | CCCCNC(=S)NN=Cc1cc2ccccc2s1 [Compound 2i, 2-(Benzo[b]thiophen-2-ylmethylene)-N-butylhydrazine-1-carbothioamide] |  |  | 
33.7 ± 0.729% | 23 ± 0.863% | 213.7 to 215.1 °C | 82.9 ± 1.62% | 43 ± 0.965% |  |  |  |  |  |  |  |  | S=C(NN=Cc1cc2ccccc2s1)NC1CCCCC1 [Compound 2j, 2-(Benzo[b]thiophen-2-ylmethylene)-N-cyclohexylhydrazine-1-carbothioamide] |  |  | 
31.1 ± 0.911% | 27.9 ± 0.815% | 213.9 to 216 °C | 80.5 ± 1.48% | 46.7 ± 0.899% |  |  |  |  |  |  |  |  | S=C(NN=Cc1cc2ccccc2s1)Nc1ccccc1 [Compound 2k, 2-(Benzo[b]thiophen-2-ylmethylene)-N-phenylhydrazine-1-carbothioamide] |  |  | 
38.9 ± 0.854% | 28.7 ± 0.803% | 198.9 to 201 °C | 79 ± 1.7% | 44.8 ± 0.758% |  |  |  |  |  |  |  |  | CCNC(=S)NN=Cc1cc2ccccc2s1 [Compound 2g, 2-(Benzo[b]thiophen-2-ylmethylene)-N-ethylhydrazine-1-carbothioamide] |  |  | 
34.1 ± 0.927% | 22.3 ± 0.824% | 179.9 to 182.1 °C | 74.2 ± 1.41% | 46.4 ± 0.997% |  |  |  |  |  |  |  |  | CCNC(=S)NN=Cc1cc2ccccc2o1 [Compound 2a, 2-(Benzofuran-2-ylmethylene)-N-ethylhydrazine-1-carbothioamide] |  |  | 
33 ± 0.955% | 28.4 ± 0.899% | 147.5 to 148.8 °C | 91.6 ± 1.65% |  | reversible and non-competitive | 35 nM | 81.5 ± 1.72% | 75 ± 1.63% | 66.4 ± 0.975% | 41.5 ± 0.856% | 25.8 ± 0.765% | 42 ± 2 nM | COCCNC(=S)NN=Cc1cc2ccccc2o1 [Compound 2b, 2-(Benzofuran-2-ylmethylene)-N-(2-methoxyethyl)hydrazine-1-carbothioamide] | non-cytotoxic | 130000 nM | 0.042 ± 0.002 µM
31.1 ± 0.994% | 24.2 ± 0.711% | 203.6 to 204.9 °C | 82.4 ± 1.33% | 47.4 ± 0.93% |  |  |  |  |  |  |  |  | S=C(NN=Cc1cc2ccccc2o1)Nc1ccccc1Cl [Compound 2f, 2-(Benzofuran-2-ylmethylene)-N-(2-chlorophenyl)hydrazine-1-carbothioamide] |  |  | 
30.4 ± 0.902% | 26.7 ± 0.82% | 120.4 to 121.2 °C | 76.3 ± 1.62% | 43.5 ± 0.728% |  |  |  |  |  |  |  |  | CCCCNC(=S)NN=Cc1cc2ccccc2o1 [Compound 2c, 2-(Benzofuran-2-ylmethylene)-N-butylhydrazine-1-carbothioamide] |  |  | 
36.7 ± 0.966% | 24.4 ± 0.721% | 212.6 to 214.4 °C | 83.6 ± 1.6% | 42.2 ± 0.763% |  |  |  |  |  |  |  |  | S=C(NN=Cc1cc2ccccc2s1)Nc1ccccc1Cl [Compound 2l, 2-(Benzo[b]thiophen-2-ylmethylene)-N-(2-chlorophenyl)hydrazine-1-carbothioamide] |  |  | 
37.5 ± 0.897% | 20.9 ± 0.834% | 191.2 to 192.9 °C | 82.6 ± 1.32% | 41.1 ± 0.956% |  |  |  |  |  |  |  |  | S=C(NN=Cc1cc2ccccc2o1)NC1CCCCC1 [Compound 2d, 2-(Benzofuran-2-ylmethylene)-N-cyclohexylhydrazine-1-carbothioamide] |  |  | 
